Assay results reported in patent publication US10428051B2 (priority 2015, dated 2019).

Target: human σ1 receptor (Homo sapiens, UniProt Q99720)
Assay: biochemical
Type: binding
Set-up: μ and σ1 dual (binding to the σ1 receptor and the μ-opioid receptor expressed as Ki): key to the marks not given beside the values

human σ1 receptor, sequence (Q99720 whole entry): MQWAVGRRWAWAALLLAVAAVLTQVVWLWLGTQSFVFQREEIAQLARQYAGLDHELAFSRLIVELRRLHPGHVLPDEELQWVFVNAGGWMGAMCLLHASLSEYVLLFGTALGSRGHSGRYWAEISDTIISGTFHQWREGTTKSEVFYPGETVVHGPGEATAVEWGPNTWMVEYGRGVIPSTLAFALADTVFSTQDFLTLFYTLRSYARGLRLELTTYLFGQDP

With `CCC(=O)N(CC1(N2CCN(Cc3ccccc3)CC2)CC1)c1ccncc1` [Example 31, N-((1-(4-benzylpiperazin-1-yl)cyclopropyl)methyl)-N-(pyridin-4-yl)propionamide] the “μ and σ1 dual (binding to the σ1 receptor and the μ-opioid receptor expressed as Ki)” value (shortened to “μ and σ1 dual”) was “++”.
In the case of `CCC(=O)N(CC1(N2CCN(Cc3cccc(F)c3)CC2)CCOCC1)c1ccccn1` [Example 110, N-((4-(4-(3-fluorobenzyl)piperazin-1-yl)tetrahydro-2H-pyran-4-yl)methyl)-N-(pyridin-2-yl)propionamide], the Ki is reported as < 500 nM.
For `CCC(=O)N(CC1(N2CCN(CCc3ncccc3F)CC2)CCOCC1)c1cccc(C(F)(F)F)n1` [Example 192, N-((4-(4-(2-(3-Fluoropyridin-2-yl)ethyl)piperazin-1-yl)tetrahydro-2H-pyran-4-yl)methyl)-N-(6-(trifluoromethyl)pyridin-2-yl)propionamide], the “μ and σ1 dual” value was “++”.
With `CCC(=O)N(CC1(N2CCN(Cc3ccc(OC)nc3)CC2)CCOCC1)c1ccccc1` [Example 109, N-((4-(4-((6-methoxypyridin-3-yl)methyl)piperazin-1-yl)tetrahydro-2H-pyran-4-yl)methyl)-N-phenylpropionamide] the Ki was < 500 nM.
`CCC(=O)N(CC1(N2CCN(CCOC(F)(F)F)CC2)CCOCC1)c1cccc(C(F)(F)F)n1` [Example 141, N-((4-(4-(2-(trifluoromethoxy)ethyl)piperazin-1-yl)tetrahydro-2H-pyran-4-yl)methyl)-N-(6-(trifluoromethyl)pyridin-2-yl)propionamide] was tested, and the Ki was < 500 nM.
`CCC(=O)N(CC1(N2CCN(Cc3ccccc3)CC2)CC1)c1ccc(F)cn1` [Example 33, N-((1-(4-benzylpiperazin-1-yl)cyclopropyl)methyl)-N-(5-fluoropyridin-2-yl)propionamide] was tested, and the Ki was < 500 nM.
With `CCC(=O)N(CC1(N2CCN(CCOC(C)C)CC2)CCOCC1)c1ccccn1` [Example 152, N-((4-(4-(2-isopropoxyethyl)piperazin-1-yl)tetrahydro-2H-pyran-4-yl)methyl)-N-(pyridin-2-yl)propionamide] the Ki was > 500 nM.
`CCC(=O)N(CC1(N2CCN(CCOC(C)C)CC2)CCOC2(CCCC2)C1)c1cccc(C(F)(F)F)n1` (centres unmarked) [Example 174, N-((9-(4-(2-isopropoxyethyl)piperazin-1-yl)-6-oxaspiro[4.5]decan-9-yl)methyl)-N-(6-(trifluoromethyl)pyridin-2-yl)propionamide] was tested, and the Ki was < 500 nM.
For `CCC(=O)N(CC1(N2CCN(Cc3ccccc3)CC2)CCOCC1)c1ccccc1O` [Example 54, N-((4-(4-benzylpiperazin-1-yl)tetrahydro-2H-pyran-4-yl)methyl)-N-(2-hydroxyphenyl)propionamide], the Ki was < 500 nM.
For `CCC(=O)N(CC1(N2CCN(CC(C)C)CC2)CCOCC1)c1ncccc1F` [Example 158, N-(3-fluoropyridin-2-yl)-N-((4-(4-isobutylpiperazin-1-yl)tetrahydro-2H-pyran-4-yl)methyl)propionamide], the “μ and σ1 dual” value was “++”.
`CCC(=O)N(CC1(N2CCN(CCC(C)C)CC2)CCOCC1)c1ncccc1F` [Example 155, N-(3-fluoropyridin-2-yl)-N-((4-(4-isopentylpiperazin-1-yl)tetrahydro-2H-pyran-4-yl)methyl)propionamide] was tested, and the Ki was < 500 nM.
For `CCC(=O)N(CC1(N2CCN(Cc3ccccc3)CC2)CC1)c1cnccc1C(F)(F)F` [Example 78, N-((1-(4-benzylpiperazin-1-yl)cyclopropyl)methyl)-N-(4-(trifluoromethyl)pyridin-3-yl)propionamide], the Ki was < 500 nM.
In the case of `CCC(=O)N(CC1(N2CCN(Cc3ccccc3)CC2)CC1)c1nccs1` [Example 92, N-((1-(4-benzylpiperazin-1-yl)cyclopropyl)methyl)-N-(thiazol-2-yl)propionamide], the Ki is reported as < 500 nM.
With `CCC(=O)N(CC)CC1(N2CCN(Cc3ccccc3)CC2)CCOCC1` [Example 99, N-((4-(4-benzylpiperazin-1-yl)tetrahydro-2H-pyran-4-yl)methyl)-N-ethylpropionamide] the “μ and σ1 dual” value was “++”.
For `COCC(=O)N(CC1(N2CCN(Cc3ccccc3)CC2)CCOCC1)c1ccccc1` [Example 37, N-((4-(4-benzylpiperazin-1-yl)tetrahydro-2H-pyran-4-yl)methyl)-2-methoxy-N-phenylacetamide], the Ki was < 500 nM.
With `CCC(=O)N(CC1(N2CCN(Cc3ccccc3)CC2)CCOCC1)c1ncccc1C#N` [Example 58, N-((4-(4-benzylpiperazin-1-yl)tetrahydro-2H-pyran-4-yl)methyl)-N-(3-cyanopyridin-2-yl)propionamide] the “μ and σ1 dual” value was “++”.
`CCC(=O)N(CC1(N2CCN(CCC(C)C)CC2)CCOC(C)(C)C1)c1ccccn1` (centres unmarked) [Example 164, N-((4-(4-isopentylpiperazin-1-yl)-2,2-dimethyltetrahydro-2H-pyran-4-yl)methyl)-N-(pyridin-2-yl)propionamide] was tested, and the “μ and σ1 dual” value was “++”.
For `CCC(=O)N(CC1(N2CC3CN(CC(C)C)CC3C2)CCOCC1)c1cccc(C(F)(F)F)n1` (centres unmarked) [Example 199, N-((4-(5-isobutylhexahydropyrrolo[3,4-c]pyrrol-2(1H)-yl)tetrahydro-2H-pyran-4-yl)methyl)-N-(6-(trifluoromethyl)pyridin-2-yl)propionamide], the Ki was > 500 nM.
`CCC(=O)N(CC1(N2CCN(Cc3ccccc3F)CC2)CCOCC1)c1ccccc1` [Example 104, N-((4-(4-(2-fluorobenzyl)piperazin-1-yl)tetrahydro-2H-pyran-4-yl)methyl)-N-phenylpropionamide] was tested, and the Ki was < 500 nM.
For `CCC(=O)N(CC1(N2CCN(CCC(C)C)CC2)CCOC(C)(C)C1)c1ncccc1F` (centres unmarked) [Example 168, N-(3-fluoropyridin-2-yl)-N-((4-(4-isopentylpiperazin-1-yl)-2,2-dimethyltetrahydro-2H-pyran-4-yl)methyl)propionamide], the “μ and σ1 dual” value was “++”.
`CCOCCN1CCN(C2(CN(C(=O)CC)c3ccccn3)CCOC(C)(C)C2)CC1` (centres unmarked) [Example 165, N-((4-(4-(2-ethoxyethyl)piperazin-1-yl)-2,2-dimethyltetrahydro-2H-pyran-4-yl)methyl)-N-(pyridin-2-yl)propionamide] was tested, and the Ki was > 500 nM.
In the case of `CCC(=O)N(CC1(N2CCN(Cc3ccccc3)CC2)CCOCC1)c1ccc(C(F)(F)F)nc1` [Example 11, N-((4-(4-benzylpiperazin-1-yl)tetrahydro-2H-pyran-4-yl)methyl)-N-(6-(trifluoromethyl)pyridin-3-yl)propionamide], the “μ and σ1 dual” value is reported as “++”.
`CCC(=O)N(CC1(N2CCN(CCc3cccnc3)CC2)CCOCC1)c1cccc(C(F)(F)F)n1` [Example 201, N-((4-(4-(2-(pyridin-3-yl)ethyl)piperazin-1-yl)tetrahydro-2H-pyran-4-yl)methyl)-N-(6-(trifluoromethyl)pyridin-2-yl)propionamide] was tested, and the “μ and σ1 dual” value was “++”.
With `CCC(=O)N(CC1(N2CCN(C(C)CC)CC2)CCOC(C)(C)C1)c1cccc(C(F)(F)F)n1` (centres unmarked) [Example 162, N-((4-(4-sec-butylpiperazin-1-yl)-2,2-dimethyltetrahydro-2H-pyran-4-yl)methyl)-N-(6-(trifluoromethyl)pyridin-2-yl)propionamide] the Ki was > 500 nM.
`CCC(=O)N(CC1(N2CCN(Cc3ccccc3)CC2)CC1)c1ccc(C(F)(F)F)cn1` [Example 94, N-((1-(4-benzylpiperazin-1-yl)cyclopropyl)methyl)-N-(5-(trifluoromethyl)pyridin-2-yl)propionamide] was tested, and the “μ and σ1 dual” value was “++”.
In the case of `CCC(=O)N(CC1(N2CCN(Cc3ccccc3)CC2)CCOC(C)(C)C1)c1ccccn1` (centres unmarked) [Example 16, N-((4-(4-benzylpiperazin-1-yl)-2,2-dimethyltetrahydro-2H-pyran-4-yl)methyl)-N-(pyridin-2-yl)propionamide], the Ki is reported as < 500 nM.
With `CCC(=O)N(CC1(N2CCN(CC(C)C)CC2)CCOC(C)(C)C1)c1ccccn1` (centres unmarked) [Example 166, N-((4-(4-isobutylpiperazin-1-yl)-2,2-dimethyltetrahydro-2H-pyran-4-yl)methyl)-N-(pyridin-2-yl)propionamide] the Ki was > 500 nM.
`CCOCCN1CCN(C2(CN(C(=O)CC)c3cccc(C#N)n3)CCOC(C)(C)C2)CC1` (centres unmarked) [Example 171, N-(6-cyanopyridin-2-yl)-N-((4-(4-(2-ethoxyethyl)piperazin-1-yl)-2,2-dimethyltetrahydro-2H-pyran-4-yl)methyl)propionamide] was tested, and the Ki was > 500 nM.
In the case of `CCC(=O)N(CC1(N2CCN(CCC(C)C)CC2)CCOCC1)c1cccc(C(F)(F)F)n1` [Example 137, N-((4-(4-isopentylpiperazin-1-yl)tetrahydro-2H-pyran-4-yl)methyl)-N-(6-(trifluoromethyl)pyridin-2-yl)propionamide], the Ki is reported as < 100 nM.
For `CCC(=O)N(CC1(N2CCN(CC(C)C)CC2)CC1)c1cccc(C(F)(F)F)n1` [Example 123, N-((1-(4-isobutylpiperazin-1-yl)cyclopropyl)methyl)-N-(6-(trifluoromethyl)pyridin-2-yl)propionamide], the Ki was < 100 nM.
For `CCNC(=O)N(CC1(N2CCN(Cc3ccccc3)CC2)CC1)c1ccccc1` [Example 52, 1-((1-(4-benzylpiperazin-1-yl)cyclopropyl)methyl)-3-ethyl-1-phenylurea], the Ki was < 500 nM.
In the case of `CCC(=O)N(CC1(N2CCN(Cc3ccccc3)CC2)CCOC2(CCCC2)C1)c1ccccn1` (centres unmarked) [Example 17, N-((9-(4-benzylpiperazin-1-yl)-6-oxaspiro[4.5]decan-9-yl)methyl)-N-(pyridin-2-yl)propionamide], the Ki is reported as < 500 nM.
`CCC(=O)N(CC1(N2CCN(Cc3cccc(F)c3)CC2)CCOCC1)c1ccccc1` [Example 100, N-((4-(4-(3-fluorobenzyl)piperazin-1-yl)tetrahydro-2H-pyran-4-yl)methyl)-N-phenylpropionamide] was tested, and the Ki was < 100 nM.
`CCNC(=O)N(CC1(N2CCN(CCc3ccccc3)CC2)CCCCC1)c1ccccc1` [Example 50, 3-ethyl-1-((1-(4-phenethylpiperazin-1-yl)cyclohexyl)methyl)-1-phenylurea] was tested, and the Ki was < 500 nM.
In the case of `CCOCCN1CCN(C2(CN(C(=O)CC)c3ncccc3F)CCOCC2)CC1` [Example 156, N-((4-(4-(2-ethoxyethyl)piperazin-1-yl)tetrahydro-2H-pyran-4-yl)methyl)-N-(3-fluoropyridin-2-yl)propionamide], the “μ and σ1 dual” value is reported as “++”.
